From US20230399623A1, “ARTIFICAL LIVER ORGANOIDS AND METHODS OF THEIR PRODUCTION” (Oslo Universitetssykehus HF, priority 2020, published 2023)

Assays:
[1] = test system: organoids; assay: Oleic acid accumulation assay (BODIPY lipid staining); format: cell-based, human; details: 300 μM, 5 days
Description: 1 M Oleic acid (Sigma Aldrich) was diluted with NaOH (Sigma Aldrich) and heated at 70° C. for 30 minutes to form a 20 mM Sodium Oleate solution. This was then diluted with a 5% BSA/PBS solution at 37° C. to form a 5 mM Sodium Oleate/BSA complex. This was further diluted to 300 μM in culture media and incubated with organoids for 5 days, changing the media each day. After the fatty acid treatment, the organoids were then incubated with 3.8 μM BODIPY 493/503 (Life Technologies) for 30 minutes in culture media at 37° C., then washed two times with PBS before replacing with fresh culture media containing DRAQ5 (Thermofisher) at 1:1500. Organoids were then imaged on a confocal as described above.

[2] = test system: human liver microsomes and a human S9 fraction; assay: Heroin metabolism in control liver fractions; format: in vitro ADME; details: controls: human liver microsomes and human S9 fraction
Excerpt: The field of non-CYP450-mediated metabolism has attracted increasing attention as an important player in absorption, distribution, metabolism, and excretion^44. We investigated liver carboxyl esterases (CES), which are hydrolytic enzymes involved in the metabolism of endogenous esters, ester-containing drugs, pro-drugs and environmental toxicants^45. The CES enzymes also metabolize a wide range of xenobiotic substrates including heroin, which is metabolized by sequential deacetylation (phase I reaction) to 6-monoacetylmorphine (6-MAM) and morphine. Morphine is then glucuronidated, by a phase II reaction via UDP-glucuronosyltransferase (UGT) to morphine-3-glucuronide (M3G). We tested if organoids supported heroin metabolism by exposure to 10 μM heroin and quantification by UPLC-MS/MS. We also compared organoid metabolism to human liver microsomes and a human S9 fraction (unfractionated microsomes and cytosol. The kinetics of metabolism was slower in the organoids we observed phase I metabolism of heroin by CES to morphine in approximately 6 hours, while the controls produced morphine in approximately 12 minutes. However, phase II metabolism (UGT) to morphine glucuronides was detectable in the organoids and absent in the controls.

[3] = test system: organoids; assay: Heroin metabolism in liver organoids (UPLC-MS/MS); format: in vitro ADME, human; details: 10 μM heroin
Description: After 21 days differentiation, 50 organoids per well were loaded in triplicate into a 96-well plate and treated with culture media supplemented with 10 μM heroin for 1, 3, 6, and 24 hours. For controls, we used culture media without organoids; these were performed in parallel to measure heroin degradation throughout the experiment. To stop metabolism at each time point the samples were transferred to a new 96-well plate prefilled with formic acid (final conc. 0.1 M) along with internal standards. The samples were centrifuged for 10 minutes at 1000×g at 4° C. The supernatants were transferred to auto-sampler vials and analysed for heroin, morphine, and M3G using an Acquity UPLC system (Waters, Milford, MA) coupled to a Xevo-TQS triple quadrupole mass spectrometer with an electrospray ionization interface (Waters) based on a method previously described 62. Data acquisition, peak integration, and quantification of samples were performed using MassLynx 4.0 SCN509 software (Waters Corp., Milford, MA, USA).
The field of non-CYP450-mediated metabolism has attracted increasing attention as an important player in absorption, distribution, metabolism, and excretion^44. […] We tested if organoids supported heroin metabolism by exposure to 10 μM heroin and quantification by UPLC-MS/MS. […]

| SMILES | lipid accumulation in organoids (Bodipy) [1] | phase II metabolism (UGT) to morphine glucuronides [2] | phase II metabolism (UGT) to morphine glucuronides [3] |
| --- | --- | --- | --- |
| CCCCCCCC/C=C\CCCCCCCC(=O)O [free fatty acid, Oleic acid] | massive lipid accumulation | – | – |
| CC(=O)Oc1ccc2c3c1O[C@H]1[C@@H](OC(C)=O)C=C[C@H]4[C@@H](C2)N(C)CC[C@@]341 [heroin] | – | absent | detectable |
